Experimental data taken from patent US5994336A, “Method of inhibiting proliferation of cells by administering an aminosterol compound” (priority 1995, dated 1999).
≈ marks a conversion by molar mass, not a printed value. Entries after “also recorded” stand apart in the source; their conditions may differ.

How the values were obtained:
[1] = system: Xenopus tadpole, stage 59-60; experiment: Tadpole assay; type: in vivo, Xenopus laevis; conditions: 10 μg/ml; for pharmacological response in tadpole (words): stage 59-60
Excerpt: For example, substances that destroy all of the animal's epithelium, both adult and embryonic, could be regarded as toxic.
The volume of liquid is sufficient for the animal to swim freely and drink from the solution. […] If the volume of liquid is not sufficient to permit oral intake, the effects that are observed would result from absorption through the surface epithelium.
In another embodiment of this assay, a solution of a compound in water can be injected directly into the abdomen of the animal using standard techniques.
After an amount of time, typically about 60 minutes, the occlusion of blood flow through capillaries in the tadpole's tail are observed under an inverted microscope at a magnification of roughly 100×.
In the assay, each of the steroids was dissolved in 100 ml of distilled water at a concentration of 10 μg/ml. Stage 59-60 Xenopus tadpoles were introduced and evaluated by light microscopy and gross observation 1 hour later.

rabbit NHE3 = molecular target: T1, rabbit NHE3 (Oryctolagus cuniculus, UniProt P26432); conditions: existing agents such as amiloride; cited from earlier work
T1 construct: BCECF internal pH recovery
T1 sequence (P26432 30-832): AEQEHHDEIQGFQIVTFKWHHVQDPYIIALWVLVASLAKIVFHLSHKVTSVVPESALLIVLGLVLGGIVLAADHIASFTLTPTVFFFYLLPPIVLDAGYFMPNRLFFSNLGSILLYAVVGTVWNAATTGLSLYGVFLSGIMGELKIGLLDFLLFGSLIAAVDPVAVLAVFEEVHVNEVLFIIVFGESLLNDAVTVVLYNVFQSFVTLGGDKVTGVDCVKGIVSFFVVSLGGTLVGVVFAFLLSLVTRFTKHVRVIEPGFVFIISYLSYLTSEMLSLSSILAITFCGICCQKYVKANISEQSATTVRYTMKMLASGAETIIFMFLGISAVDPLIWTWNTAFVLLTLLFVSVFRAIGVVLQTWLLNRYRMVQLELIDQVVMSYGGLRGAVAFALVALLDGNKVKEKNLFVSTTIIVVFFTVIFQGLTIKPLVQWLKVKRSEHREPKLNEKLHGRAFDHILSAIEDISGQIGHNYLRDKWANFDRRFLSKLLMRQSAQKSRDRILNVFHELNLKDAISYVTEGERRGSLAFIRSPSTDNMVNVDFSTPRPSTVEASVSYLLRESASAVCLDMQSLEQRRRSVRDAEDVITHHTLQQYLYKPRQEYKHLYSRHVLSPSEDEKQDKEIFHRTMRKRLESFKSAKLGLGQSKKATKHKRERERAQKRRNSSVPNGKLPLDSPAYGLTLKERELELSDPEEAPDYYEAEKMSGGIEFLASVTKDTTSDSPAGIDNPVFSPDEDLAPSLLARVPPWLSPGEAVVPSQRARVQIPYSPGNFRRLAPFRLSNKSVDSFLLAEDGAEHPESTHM

NHE1β = conditions: nucleated erythrocyte isoform; cited from earlier work
Lic = experiment: MTT Lic (Table II); type: cell-based; conditions: read-out: Minimum Effective Concentration, MTT Lic
Excerpt: (§1) As set forth in Table II, which follows Table I, the activities of natural and synthetic aminosterols in the different assays vary. In light of the foregoing, it is now possible to screen for steroids with or without squalamine-like pharmacological activity.

[2] = system: human microvascular cells; experiment: Inhibition of endothelial cell cord formation in vitro; type: cell-based; conditions: Homo sapiens, Endothelial cell; Table II; read-out: Minimum Effective Concentration, Cord Formation
Excerpt: Endothelial cells have the capacity in vitro to form tubular aggregates resembling capillaries in various early stages of formation. This conversion occurs under relatively specific conditions, in which essential growth factors along with an effective substratum are provided. It has been shown that both the interaction of growth factors with the endothelial cell and its attachment to a substratum activate the NHE. The activation of this exchanger is believed to be required for subsequent morphologic transformation of the endothelial cell into a multicellular tubular structure.
To assess the effect of compounds on the cord-like structures formed by human microvascular cells when plated in the presence of VEGF (Vascular Endothelial Growth Factor) and basic fibroblast growth factor on a collagen matrix, a standard cord formation assay was used.

MTT assay (Table II) = type: cell-based; conditions: read-out: Minimum Effective Concentration, MTT assay
Excerpt: as §1

E. coli = experiment: Antibiotic activity, MIC; type: cell-based; conditions: Escherichia coli
Excerpt: (§2) Thus, it is possible to achieve an antimicrobial steroid with or without squalamine-like pharmacological activity.

P. aerug = experiment: Antibiotic activity, MIC; type: cell-based
Excerpt: as §2

C. albicans = experiment: Antibiotic activity, MIC; type: cell-based; conditions: Candida albicans
Excerpt: as §2

S. aureus = experiment: Antibiotic activity, MIC; type: cell-based; conditions: Staphylococcus aureus
Excerpt: as §2

vitelline capillaries = experiment: Chick embryo vitelline capillary regression assay; type: in vivo
Description: Using the chick embryo vitelline capillaries assay, compounds were tested for their ability to induce capillary regression. Each compound was applied in 0.1 ml of 15% Ficol 400 and PBS onto the embryo, and vascular regression was assessed after 60 minutes.
The 3-day chick embryo consists of an embryonic disc from which numerous vessels emerge and return, forming a "FIG. 8"-shaped structure--the embryo in the center with vascular loops extending outward over both poles. […] Following a lag period of around 15 minutes, the constriction of continuity between capillary and secondary vessels, generally on the "venous" side, was observed. Continued pulsatile blood flow progressed, resulting in a "swelling" of the blind tube, followed by a pinching off of the remaining connection and formation of an enclosed vascular sac resembling a "blood island." This process progressed until only the largest vessels remained intact.

[3] = system: Human ovarian carcinoma SKOV3; experiment: Growth inhibition in vitro (Table 7); type: cell-based
Description: As set forth in Table 7 below, all malignant tumors evaluated in tissue culture, endothelial cells and vascular smooth muscle cells were sensitive to inhibition. Thus, compound 1436 has application in the control of growth factor dependent proliferation of many types of tissue.
Using the assay described above, the anticancer effects of compound 1437 against several cancer lines was assessed.

[4] = Effect on fasting blood glucose in mice; type: in vivo, mouse; conditions: i.v.
Description: To study the effect of steroid administrator or the NHE responsible for secretion of insulin, several of the aminosterols from shark liver were administered to fasting mice. Male CD-1 mice were assigned to one of four treatment groups. Whole blood glucose was tested using glucometer (Lifescan Glucometer II and One Touch test strips). Statistical analysis was via one-way analysis of variance (ANOVA) followed by subsequent Bonferonni's t-test.

## COC(=O)CC[C@@H](C)[C@H]1CC[C@H]2[C@@H]3C[C@@H](O)[C@H]4C[C@H](NCCN)CC[C@]4(C)[C@H]3CC[C@]12C [Compound 431]
[1]
  pharmacological response in tadpole (words): functionally similar to compound 1437

## CC(C)CCC[C@@H](C)[C@H]1CC[C@H]2[C@@H]3[C@H](O)C[C@H]4C[C@@H](NCCCNCCCCN)CC[C@]4(C)[C@H]3CC[C@]12C [Compound 371]
[1]
  pharmacological response in tadpole (words): effects like those produced by compound 1436

## N=C(N)NC(=O)c1nc(Cl)c(N)nc1N [Amiloride]
Rabbit NHE3
  effect on Vmax of NHE3 (existing agents): affected only Vmax
NHE1β
  inhibition of NHE1β: inhibited by high concentrations

## CC(CC[C@@H](OS(=O)(=O)O)C(C)C)[C@H]1CCC2C3C(CC[C@@]21C)[C@@]1(C)CC[C@H](NCCCNCCCCN)C[C@@H]1C[C@H]3O (stereo partly shown)
Lic
  minimal effective concentration: 13.2 µg/mL
[2]
  minimal effective concentration: 0.01 to 0.1 µg/mL

## COC(=O)CC[C@@H](C)[C@H]1CC[C@H]2[C@@H]3C[C@@H](O)[C@H]4C[C@@H](NCCN)CC[C@]4(C)[C@H]3CC[C@]12C [Compound 432]
[1]
  pharmacological response in tadpole (words): functionally similar to compound 1437

## CC(C)CCC[C@@H](C)[C@H]1CC[C@H]2[C@@H]3[C@H](O)C[C@H]4C[C@H](NCCCNCCCCN)CC[C@]4(C)[C@H]3CC[C@]12C [drawing 94]
MTT assay (Table II)
  minimal effective concentration: 4 µg/mL

## COC(=O)CC[C@@H](C)[C@H]1CC[C@H]2[C@@H]3C[C@@H](O)[C@H]4C[C@H](NCCCNCCCCNCCCN)CC[C@]4(C)[C@H]3CC[C@]12C [Compound 465]
[1]
  pharmacological response in tadpole (words): pharmacologic activity similar to that seen for FX 3

## COC(=O)CC[C@@H](C)[C@H]1CC[C@H]2[C@@H]3CC[C@@H]4C[C@H](NCCN)CC[C@]4(C)[C@H]3C[C@H](O)[C@]12C [Compound 416]
[1]
  pharmacological response in tadpole (words): functionally similar to compound 1437

## CC(CC[C@@H](OS(=O)(=O)O)C(C)C)[C@H]1CCC2C3C(CC[C@@]21C)[C@@]1(C)CC[C@H](NCCCNCCCCNCCCN)C[C@@H]1C[C@H]3O (stereo partly shown)
Lic
  minimal effective concentration: 16.7 µg/mL

## CC(O)[C@H]1CC[C@H]2[C@@H]3CC[C@H]4C[C@@H](NCCCNCCCCN)CC[C@]4(C)[C@H]3CC[C@]12C (stereo partly shown)
E. coli
  MIC: 32 to 64 mg/L (≈ 71.5 to 143 µM)
P. aerug
  MIC: 256 mg/L (≈ 572 µM)
C. albicans
  MIC: 64 mg/L (≈ 143 µM)
S. aureus
  MIC: 4 mg/L (≈ 8.93 µM)

## C[C@H](CCC(=O)O)[C@H]1CC[C@H]2[C@@H]3C[C@@H](O)[C@H]4C[C@@H](NCCN)CC[C@]4(C)[C@H]3CC[C@]12C [Compound 433]
[1]
  pharmacological response in tadpole (words): functionally similar to compound 1437

## COC(=O)CC[C@@H](C)[C@H]1CC[C@H]2[C@@H]3CC[C@H]4C[C@@H](NCCCNCCCCNCCCN)CC[C@]4(C)[C@H]3CC[C@]12C [Compound 459]
[1]
  pharmacological response in tadpole (words): pharmacologic activity similar to that seen for FX 3

## CC(COS(=O)(=O)O)C(=O)CC[C@@H](C)[C@H]1CC[C@H]2[C@@H]3[C@H](O)C[C@H]4C[C@@H](NCCCNCCCCN)CC[C@]4(C)[C@H]3CC[C@]12C (single isomer, unassigned) [Compound 1360]
[1]
  pharmacological response in tadpole (words): Swelling and lysis of certain erythrocytes occurred, resulting in accumulation of nuclei within certain small vessels of the tail. Subsequent tissue breakdown occurred in areas of tail surrounding these nuclear plugs
[1]; listed as compound 1360
  pharmacological response in tadpole (words): extensive vasocclusion occurred within 60 minutes throughout the tail
Vitelline capillaries; within 20 minutes
  effect on circulating embryonic blood: the blood circulating through the embryonic vessels exhibited a brighter red color

## C[C@H](CCC(=O)O)[C@H]1CC[C@H]2[C@@H]3[C@H](O)C[C@@H]4C[C@H](NCCN)CC[C@]4(C)[C@H]3CC[C@]12C [Compound 414]
[1]
  pharmacological response in tadpole (words): pharmacologic activity similar to Fraction 1

## CC(C)CCC[C@@H](C)[C@H]1CC[C@H]2[C@@H]3[C@H](O)C[C@H]4C[C@H](N)CC[C@]4(C)[C@H]3CC[C@]12C [Compound 1363]
[1]
  pharmacological response in tadpole (words): pharmacologic activity similar to Fraction 1

## COC(=O)CC[C@@H](C)[C@H]1CC[C@H]2[C@@H]3CC[C@H]4C[C@H](NCCCNCCCCNCCCN)CC[C@]4(C)[C@H]3CC[C@]12C [Compound 458]
[1]
  pharmacological response in tadpole (words): pharmacologic activity similar to that seen for FX 3

## CC(C)CCC[C@@H](C)[C@H]1CC[C@H]2[C@@H]3CC[C@H]4C[C@@H](NCCCNCCCCNCCCN)CC[C@]4(C)[C@H]3CC[C@]12C [drawing 86]
MTT assay (Table II)
  minimal effective concentration: 3 µg/mL

## COC(=O)CC[C@@H](C)[C@H]1CC[C@H]2[C@@H]3C[C@@H](O)[C@H]4C[C@@H](NCCCNCCCCNCCCN)CC[C@]4(C)[C@H]3CC[C@]12C [Compound 466]
[1]
  pharmacological response in tadpole (words): pharmacologic activity similar to that seen for FX 3

## CC(C)CCC[C@@H](C)[C@H]1CC[C@H]2[C@@H]3[C@H](O)C[C@H]4C[C@H](NCCCNCCCCN)CC[C@]4(C)[C@H]3CC[C@]12C [Compound 370]
[1]
  pharmacological response in tadpole (words): pharmacologic activity similar to that seen for FX 3

## COC(=O)CC[C@@H](C)[C@H]1CC[C@H]2[C@@H]3[C@H](O)C[C@@H]4C[C@H](NCCN)CC[C@]4(C)[C@H]3CC[C@]12C [Compound 410]
[1]
  pharmacological response in tadpole (words): functionally similar to compound 1437

## COC(=O)CC[C@@H](C)[C@H]1CC[C@H]2[C@@H]3[C@H](O)C[C@@H]4C[C@@H](NCCN)CC[C@]4(C)[C@H]3CC[C@]12C [Compound 409]
[1]
  pharmacological response in tadpole (words): functionally similar to compound 1437

## COC(=O)CCC(C)[C@H]1CCC2C3C(CC[C@@]21C)[C@@]1(C)CC[C@@H](NCCN)C[C@H]1C[C@H]3O (stereo partly shown)
MTT assay (Table II)
  minimal effective concentration: 2.5 µg/mL

## C[C@H](CCC(=O)O)[C@H]1CC[C@H]2[C@@H]3[C@H](O)C[C@@H]4C[C@@H](NCCN)CC[C@]4(C)[C@H]3CC[C@]12C [Compound 415]
Vitelline capillaries
  activity on vitelline capillaries: especially active

## C[C@H](CCC(=O)O)[C@H]1CC[C@H]2[C@@H]3[C@H](O)C[C@@H]4C[C@H](NCCCNCCCCNCCCN)CC[C@]4(C)[C@H]3CC[C@]12C [Compound 412]
[1]
  pharmacological response in tadpole (words): pharmacologic activity similar to that seen for FX 3

## CC(C)C(CO)(CC[C@@H](C)[C@H]1CC[C@H]2[C@@H]3[C@H](O)C[C@H]4C[C@@H](NCCCNCCCCN)CC[C@]4(C)[C@H]3CC[C@]12C)OS(=O)(=O)O (single isomer, unassigned) [Compound 1437]
[3]
  anticancer activity: exhibit anticancer activity
[1]
  tissues or functions not affected in tadpole: Animal was otherwise active, with little tissue breakdown noted
  pharmacological response in tadpole (words): Epithelium covering the embryonic portions of the animal, such as the tail and antennae, began to slough off in sheets; also recorded: dramatic effect on the embryonic epithelium covering the tadpole tale
[4]
  blood glucose effect: caused hyperglycemia in mice

## CC(O)[C@H]1CC[C@H]2[C@@H]3CC[C@H]4C[C@H](NCCCNCCCCN)CC[C@]4(C)[C@H]3CC[C@]12C (stereo partly shown)
E. coli
  MIC: 64 mg/L (≈ 143 µM)
P. aerug
  MIC: 128 mg/L (≈ 286 µM)
C. albicans
  MIC: 128 mg/L (≈ 286 µM)
S. aureus
  MIC: 16 mg/L (≈ 35.7 µM)

## C[C@H](CCC(=O)O)[C@H]1CC[C@H]2[C@@H]3[C@H](O)C[C@@H]4C[C@@H](NCCCNCCCCNCCCN)CC[C@]4(C)[C@H]3CC[C@]12C [Compound 413]
[1]
  pharmacological response in tadpole (words): effects like those produced by compound 1436
